Test results reported in US10683334B2 (INDIANA UNIVERSITY RESEARCH AND TECHNOLOGY CORPORATION, priority 2016, dated 2020).
Square brackets hold non-standard residues; d marks the D form. Peptide text beside a SMILES is read from it. 3Pal = N[C@@H](Cc1cccnc1)C(=O)O; Aib = CC(C)(N)C(=O)O

Key:
physchem = conditions: pH 7.4
Experimental: 1 or 5 mg of pre-lyophilized peptide in 2 mL Eppendorf tube was treated with 200-400 uL of phosphate buffer (PBS: 50 mM sodium phosphate, 150 mM of sodium chloride, pH7.4). Samples were then vortexed and sonicated for 10 min then equilibrated at RT for 1H, and then centrifuged at 10 krpms for 10 min Concentration of the peptides in obtained supernatant was determined by measuring UV absorbance at λ=280 nm. […] Concentration in aliquots was reassessed as previously with UV absorbance. Change in peptide concentration was evaluated after 48 h and 7 days of storage at 4° C.

glucagon receptor = glucagon receptor (Homo sapiens, UniProt P47871); test: Luciferase-based glucagon assay (cAMP reporter, HEK293 cells); conditions: for EC50: read-out: EC50 [nM] (SDV), SDV in brackets; for % bioactivity of GCG: relative to native glucagon
Experimental: At the end of the incubation 100 microliters of LucLite luminescence substrate reagent (Perkin-Elmer, Wellesley, Mass.) were added to each well. […] The luminescent light output indicates activation of the luciferase reporter gene, which in turn is a measure of the activation of the receptor.

[1] = luciferase-based glucagon assay

Sequence of glucagon receptor (P47871 26-477): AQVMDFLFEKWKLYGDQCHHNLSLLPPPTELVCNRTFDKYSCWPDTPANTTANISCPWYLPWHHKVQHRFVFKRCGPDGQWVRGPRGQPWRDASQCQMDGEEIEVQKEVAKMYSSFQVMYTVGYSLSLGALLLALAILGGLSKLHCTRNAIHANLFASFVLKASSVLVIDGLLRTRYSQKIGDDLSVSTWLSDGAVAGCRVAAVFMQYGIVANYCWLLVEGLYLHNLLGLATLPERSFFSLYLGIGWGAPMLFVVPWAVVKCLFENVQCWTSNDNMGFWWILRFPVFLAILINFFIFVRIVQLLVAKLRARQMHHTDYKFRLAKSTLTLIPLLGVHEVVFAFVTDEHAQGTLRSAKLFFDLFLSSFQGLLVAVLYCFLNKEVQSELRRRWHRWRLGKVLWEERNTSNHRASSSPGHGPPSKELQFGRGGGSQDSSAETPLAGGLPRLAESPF

Row | solubility at 1 h (physchem) [µg/mL] | SMILES | EC50 (glucagon receptor; [1]) [nM] | % bioactivity of GCG (glucagon receptor) [%] | in vitro efficacy / potency (in words) (glucagon receptor; [1])
1 | > 1000 | CSCC[C@H](NC(=O)[C@H](CC(C)C)NC(=O)[C@H](Cc1c[nH]c2ccccc12)NC(=O)[C@H](CCC(N)=O)NC(=O)[C@@H](NC(=O)[C@H](Cc1ccccc1)NC(=O)[C@H](CC(=O)O)NC(=O)[C@H](CCC(N)=O)NC(=O)[C@H](C)NC(=O)[C@H](CCCNC(=N)N)NC(=O)[C@H](CCCNC(=N)N)NC(=O)C(C)(C)NC(=O)[C@H](CC(=O)O)NC(=O)[C@H](CC(C)C)NC(=O)[C@H](Cc1ccc(O)cc1)NC(=O)[C@H](CCCCN)NC(=O)[C@H](CO)NC(=O)[C@H](Cc1cccnc1)NC(=O)[C@H](CC(=O)O)NC(=O)[C@H](CO)NC(=O)[C@@H](NC(=O)[C@H](Cc1ccccc1)NC(=O)[C@@H](NC(=O)CNC(=O)[C@H](CCC(N)=O)NC(=O)[C@H](CO)NC(=O)[C@@H](N)Cc1c[nH]cn1)[C@@H](C)O)[C@@H](C)O)C(C)C)C(=O)N[C@@H](CC(N)=O)C(=O)N[C@H](C(=O)O)[C@@H](C)O [Compound 4, HSQGTFTSDXSKYLDZRRAQDFVQWLMNT] | 0.0268 | 76 | –
2 | – | CSCC[C@H](NC(=O)[C@H](CC(C)C)NC(=O)[C@H](Cc1c[nH]c2ccccc12)NC(=O)[C@H](CCC(N)=O)NC(=O)[C@@H](NC(=O)[C@H](Cc1cccnc1)NC(=O)[C@H](CC(=O)O)NC(=O)[C@H](CCC(N)=O)NC(=O)[C@H](C)NC(=O)[C@H](CCCNC(=N)N)NC(=O)[C@H](CCCNC(=N)N)NC(=O)C(C)(C)NC(=O)[C@H](CC(=O)O)NC(=O)[C@H](CC(C)C)NC(=O)[C@H](Cc1cccnc1)NC(=O)[C@H](CCCCN)NC(=O)[C@H](CO)NC(=O)[C@H](Cc1cccnc1)NC(=O)[C@H](CC(=O)O)NC(=O)[C@H](CO)NC(=O)[C@@H](NC(=O)[C@H](Cc1cccnc1)NC(=O)[C@@H](NC(=O)CNC(=O)[C@H](CCC(N)=O)NC(=O)[C@H](CO)NC(=O)[C@@H](N)Cc1c[nH]cn1)[C@@H](C)O)[C@@H](C)O)C(C)C)C(=O)N[C@@H](CC(N)=O)C(=O)N[C@H](C(=O)O)[C@@H](C)O [Compound 11, HSQGTXTSDXSKXLDZRRAQDXVQWLMNT] (H-HSQGT[3Pal]TSD[3Pal]SK[3Pal]LD[Aib]RRAQD[3Pal]VQWLMNT-OH; N-terminus and C-terminus assumed) | 2.33 | 1 | lower potency
3 | > 10000 | CSCC[C@H](NC(=O)[C@H](CC(C)C)NC(=O)[C@H](Cc1c[nH]c2ccccc12)NC(=O)[C@H](CCC(N)=O)NC(=O)[C@@H](NC(=O)[C@H](Cc1cccnc1)NC(=O)[C@H](CC(=O)O)NC(=O)[C@H](CCC(N)=O)NC(=O)[C@H](C)NC(=O)[C@H](CCCNC(=N)N)NC(=O)[C@H](CCCNC(=N)N)NC(=O)C(C)(C)NC(=O)[C@H](CC(=O)O)NC(=O)[C@H](CC(C)C)NC(=O)[C@H](Cc1cccnc1)NC(=O)[C@H](CCCCN)NC(=O)[C@H](CO)NC(=O)[C@H](Cc1cccnc1)NC(=O)[C@H](CC(=O)O)NC(=O)[C@H](CO)NC(=O)[C@@H](NC(=O)[C@H](Cc1cccnc1)NC(=O)[C@@H](NC(=O)CNC(=O)[C@H](CCC(N)=O)NC(=O)[C@H](CO)NC(=O)[C@@H](N)Cc1cnc[nH]1)[C@@H](C)O)[C@@H](C)O)C(C)C)C(=O)N[C@@H](CC(N)=O)C(=O)N[C@H](C(=O)O)[C@@H](C)O [Compound 11, HSQGTXTSDXSKXLDZRRAQDXVQWLMNT] (H-HSQGT[3Pal]TSD[3Pal]SK[3Pal]LD[Aib]RRAQD[3Pal]VQWLMNT-OH) | – | – | –
